Measurements as given in patent US9770026B2, “Substituted pyrimidine compound and uses thereof” (Shenyang Sinochem Agrochemicals R&D Co., Ltd., priority 2012, dated 2017).

Key:
corn rust = test: protectant activity in vivo against corn rust; conditions: for pest or weed control at 100 ppm: read-out: protectant activity against corn rust in vivo, 100 ppm; for pest or weed control at 400 ppm: read-out: protectant activity against corn rust in vivo, 400 ppm
rice blast = test: microbe, parasite or virus in culture; format: cell-based; conditions: for inhibition at 8.3 ppm: read-out: inhibition rate against rice blast, 8.3 ppm, in vitro; for inhibition at 25 ppm: read-out: inhibition rate against rice blast, 25 ppm, in vitro; for inhibition rate against rice blast: in vitro
cucumber downy mildew = test: protectant activity in vivo against cucumber downy mildew; conditions: for pest or weed control at 400 ppm: read-out: protectant activity against cucumber downy mildew in vivo, 400 ppm; for control effect against cucumber downy mildew (%): protectant activity
wheat powdery mildew = test: protectant activity in vivo against wheat powdery mildew; conditions: for pest or weed control at 400 ppm: read-out: protectant activity against wheat powdery mildew in vivo, 400 ppm; for protectant activity against wheat powdery mildew in vivo: 400 ppm
[1] = tested on: Green peach aphids (Myzus Persicae Sulzer); test: bioactivity test against green peach aphid, airbrush foliar spray; format: in vivo; conditions: for pest or weed control at 10 ppm / pest or weed control at 100 ppm / pest or weed control at 600 ppm: Myzus persicae, foliar, 48 h; for pest or weed control at 10 ppm / pest or weed control at 100 ppm / pest or weed control at 600 ppm / control (test results against green peach aphid): death rate after 48 hrs; for Insecticidal activity against peach aphid (%): contrastive test
Outline: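 Aphids (15-30 per cabbage leaf disc) on moist filter paper were airbrush-sprayed at 10 psi, 0.5 mL, with compound from acetone:methanol (1:1) diluted in water with 0.1% tween 80. Held at 25±1 C, 60±5% RH; survivors counted after 48 hrs to give death rates.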

carmine spider mite = test: bioactivity test against carmine spider mite, airbrush spray; format: in vivo; conditions: for pest or weed control at 100 ppm / pest or weed control at 600 ppm: Tetranychus cinnabarinus, 72 h; for pest or weed control at 100 ppm / pest or weed control at 600 ppm / control against carmine spider mite: mortality after 72 hrs; for Insecticidal activity against carmine spider mite (% ): contrastive test
Outline: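 Broadbean seedlings infested with adult mites were sprayed with compound (acetone/methanol stock diluted in 0.1% Tween 80 water) by airbrush at 0.7 kg/cm^2, 0.5 ml. Three replicates were run. Mortality was scored after 72 hrs.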

Diamond back moth = test: insecticidal activity against diamond back moth, airbrush spray; format: in vivo; conditions: for control (test results against diamond back moth): mortality after 72 hrs
Outline: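 Airbrush leaf-disc spray test: both faces of 2 cm cabbage discs received 0.5 ml of test solution at 0.7 kg/cm^2. Solutions were made in acetone:methanol (1:1) and brought to concentration with 0.1% Tween 80 in water. Ten second-instar larvae per disc, triplicates, were held at 25° C and 60˜70% R.H., with mortality recorded at 72 hrs.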

armyworm = test: bioactivity test against armyworm, airbrush spray; format: in vivo; conditions: for control (test results against armyworm): mortality after 72 h

CCc1c(Cl)c(NCCc2ccc(Oc3ccc(C(F)(F)F)cc3)cc2)nc[n+]1CC(=O)c1ccc(Cl)cc1 [CK50, reference compound]
0%: pest or weed control at 6.25 µg/mL (corn rust; Zea mays, 168 h, read-out: control effect against corn rust (%), 6.25 mg/L, protectant activity) | pest or weed control at 25 µg/mL (corn rust; Zea mays, 168 h, read-out: control effect against corn rust (%), 25 mg/L, protectant activity) | pest or weed control at 100 µg/mL (corn rust; Zea mays, 168 h, read-out: control effect against corn rust (%), 100 mg/L, protectant activity) | inhibition at 8.3 ppm (rice blast; Pyricularia oryzae)
80%: pest or weed control at 400 µg/mL (corn rust; Zea mays, 168 h, read-out: control effect against corn rust (%), 400 mg/L, protectant activity)
< 50%: inhibition at 25 ppm (rice blast; Pyricularia oryzae)

FC(F)(F)c1ccc(Oc2ccc(CCNc3ncnc(CCl)c3Cl)cc2)nc1 [Compound I-2922]
100%: protectant activity against corn rust in vivo (corn rust; 100 ppm) | protectant activity against corn rust in vivo (corn rust; 400 ppm) | inhibition rate against rice blast (rice blast; 0.1 ppm) | inhibition rate against rice blast (rice blast; 0.3 ppm) | inhibition rate against rice blast (rice blast; 0.9 ppm) | inhibition rate against rice blast (rice blast; 2.8 ppm) | inhibition rate against rice blast (rice blast; 8.3 ppm)

CCc1nc(C)nc(NCCc2ccc(Oc3ncc(C(N)=O)cc3Cl)cc2)c1Cl [Compound I-6791]
80 to 99%: pest or weed control at 100 ppm (corn rust; Zea mays, 168 h) | inhibition at 25 ppm (rice blast; Pyricularia oryzae)
100%: pest or weed control at 400 ppm (corn rust; Zea mays, 168 h)

CCc1nc(C)nc(NCCc2ccc(Oc3ncccc3C(F)(F)F)cc2)c1Cl [Compound I-6793]
100%: pest or weed control at 400 ppm (corn rust; Zea mays, 168 h) | pest or weed control at 25 ppm (wheat powdery mildew; Triticum aestivum, 168 h, read-out: protectant activity against wheat powdery mildew in vivo, 25 ppm) | pest or weed control at 100 ppm (wheat powdery mildew; Triticum aestivum, 168 h, read-out: protectant activity against wheat powdery mildew in vivo, 100 ppm) | pest or weed control at 400 ppm (wheat powdery mildew; Triticum aestivum, 168 h) | pest or weed control at 100 ppm ([1]; 100 ppm) | pest or weed control at 600 ppm ([1]; 600 ppm)
80 to 99%: inhibition at 25 ppm (rice blast; Pyricularia oryzae) | pest or weed control at 400 ppm (cucumber downy mildew; Cucumis sativus, 168 h) | pest or weed control at 10 ppm ([1]; 10 ppm)

CCc1nc(C)nc(NCCc2ccc(Oc3ccc(C#N)cn3)cc2)c1Cl [Compound I-6795]
100%: pest or weed control at 400 ppm (corn rust; Zea mays, 168 h) | pest or weed control at 100 ppm (carmine spider mite; 100 ppm) | pest or weed control at 600 ppm (carmine spider mite; 600 ppm) | pest or weed control at 400 ppm (wheat powdery mildew; Triticum aestivum, 168 h) | pest or weed control at 600 ppm ([1]; 600 ppm)
80 to 99%: inhibition at 25 ppm (rice blast; Pyricularia oryzae)

CCc1nc(C)nc(NCCc2ccc(Oc3ccc(C(=O)OC)cn3)cc2)c1Cl [Compound I-6797]
80 to 99%: inhibition at 25 ppm (rice blast; Pyricularia oryzae) | pest or weed control at 400 ppm (cucumber downy mildew; Cucumis sativus, 168 h) | pest or weed control at 400 ppm (wheat powdery mildew; Triticum aestivum, 168 h) | pest or weed control at 10 ppm ([1]; 10 ppm)
100%: pest or weed control at 100 ppm (carmine spider mite; 100 ppm) | pest or weed control at 600 ppm (carmine spider mite; 600 ppm) | pest or weed control at 100 ppm ([1]; 100 ppm) | pest or weed control at 600 ppm ([1]; 600 ppm)

Cc1ncnc(NCCc2ccc(Oc3c(Cl)cc([N+](=O)[O-])cc3Cl)cc2)c1Cl [II-165]
80 to 99%: pest or weed control at 100 ppm (corn rust; Zea mays, 168 h) | pest or weed control at 600 ppm (carmine spider mite; 600 ppm)
100%: pest or weed control at 400 ppm (corn rust; Zea mays, 168 h) | inhibition at 0.1 ppm (rice blast; Pyricularia oryzae, read-out: inhibition rate against rice blast, 0.1 ppm, in vitro) | inhibition at 0.3 ppm (rice blast; Pyricularia oryzae, read-out: inhibition rate against rice blast, 0.3 ppm, in vitro) | inhibition at 0.9 ppm (rice blast; Pyricularia oryzae, read-out: inhibition rate against rice blast, 0.9 ppm, in vitro) | inhibition at 2.8 ppm (rice blast; Pyricularia oryzae, read-out: inhibition rate against rice blast, 2.8 ppm, in vitro) | inhibition at 8.3 ppm (rice blast; Pyricularia oryzae) | inhibition at 25 ppm (rice blast; Pyricularia oryzae)

CCc1ncnc(NCCc2ccc(Oc3ccc(OC)cc3)nc2)c1Cl [III-199]
64%: Insecticidal activity against armyworm (%) (armyworm; 10 mg/L)
100%: protectant activity against corn rust in vivo (corn rust; 400 ppm) | Insecticidal activity against carmine spider mite (% ) (carmine spider mite; 100 mg/L) | Insecticidal activity against carmine spider mite (% ) (carmine spider mite; 600 mg/L) | control against carmine spider mite (carmine spider mite; 100 ppm) | control against carmine spider mite (carmine spider mite; 600 ppm) | control (test results against diamond back moth) (Diamond back moth; 600 ppm) | Insecticidal activity against armyworm (%) (armyworm; 100 mg/L) | Insecticidal activity against armyworm (%) (armyworm; 600 mg/L) | control (test results against armyworm) (armyworm; 100 ppm) | control (test results against armyworm) (armyworm; 600 ppm) | protectant activity against cucumber downy mildew in vivo (cucumber downy mildew; 100 ppm) | protectant activity against cucumber downy mildew in vivo (cucumber downy mildew; 400 ppm) | protectant activity against wheat powdery mildew in vivo (wheat powdery mildew) | control (test results against green peach aphid) ([1]; 100 ppm) | control (test results against green peach aphid) ([1]; 600 ppm)
87%: Insecticidal activity against carmine spider mite (% ) (carmine spider mite; 10 mg/L)

CCc1ncnc(NCCc2ccc(Oc3cccc(C(F)(F)F)c3)nc2)c1Cl [III-201]
98%: control effect against cucumber downy mildew (%) (cucumber downy mildew; 12.5 mg/L)
100%: protectant activity against corn rust in vivo (corn rust; 100 ppm) | protectant activity against corn rust in vivo (corn rust; 400 ppm) | control against carmine spider mite (carmine spider mite; 600 ppm) | control (test results against diamond back moth) (Diamond back moth; 600 ppm) | control (test results against armyworm) (armyworm; 600 ppm) | control effect against cucumber downy mildew (%) (cucumber downy mildew; 25 mg/L) | control effect against cucumber downy mildew (%) (cucumber downy mildew; 50 mg/L) | control effect against cucumber downy mildew (%) (cucumber downy mildew; 100 mg/L) | control effect against cucumber downy mildew (%) (cucumber downy mildew; 400 mg/L) | protectant activity against cucumber downy mildew in vivo (cucumber downy mildew; 25 ppm) | protectant activity against cucumber downy mildew in vivo (cucumber downy mildew; 50 ppm) | protectant activity against cucumber downy mildew in vivo (cucumber downy mildew; 100 ppm) | protectant activity against cucumber downy mildew in vivo (cucumber downy mildew; 400 ppm) | protectant activity against wheat powdery mildew in vivo (wheat powdery mildew) | control (test results against green peach aphid) ([1]; 100 ppm) | control (test results against green peach aphid) ([1]; 600 ppm)

FC(F)c1ncnc(NCCc2ccc(Oc3ccccc3)nc2)c1Cl [III-541]
100%: protectant activity against corn rust in vivo (corn rust; 400 ppm) | control against carmine spider mite (carmine spider mite; 600 ppm) | control (test results against diamond back moth) (Diamond back moth; 600 ppm) | control (test results against armyworm) (armyworm; 600 ppm) | control effect against cucumber downy mildew (%) (cucumber downy mildew; 6.25 mg/L) | control effect against cucumber downy mildew (%) (cucumber downy mildew; 12.5 mg/L) | control effect against cucumber downy mildew (%) (cucumber downy mildew; 25 mg/L) | control effect against cucumber downy mildew (%) (cucumber downy mildew; 50 mg/L) | control effect against cucumber downy mildew (%) (cucumber downy mildew; 100 mg/L) | control effect against cucumber downy mildew (%) (cucumber downy mildew; 400 mg/L) | protectant activity against cucumber downy mildew in vivo (cucumber downy mildew; 6.25 ppm) | protectant activity against cucumber downy mildew in vivo (cucumber downy mildew; 12.5 ppm) | protectant activity against cucumber downy mildew in vivo (cucumber downy mildew; 25 ppm) | protectant activity against cucumber downy mildew in vivo (cucumber downy mildew; 50 ppm) | protectant activity against cucumber downy mildew in vivo (cucumber downy mildew; 100 ppm) | protectant activity against cucumber downy mildew in vivo (cucumber downy mildew; 400 ppm) | protectant activity against wheat powdery mildew in vivo (wheat powdery mildew) | control (test results against green peach aphid) ([1]; 100 ppm) | control (test results against green peach aphid) ([1]; 600 ppm)
95%: control effect against cucumber downy mildew (%) (cucumber downy mildew; 3.125 mg/L)

FC(F)c1ncnc(NCCc2ccc(Oc3ccc(Cl)cc3)nc2)c1Cl [III-547]
100%: protectant activity against corn rust in vivo (corn rust; 400 ppm) | Insecticidal activity against carmine spider mite (% ) (carmine spider mite; 100 mg/L) | Insecticidal activity against carmine spider mite (% ) (carmine spider mite; 600 mg/L) | control against carmine spider mite (carmine spider mite; 100 ppm) | control against carmine spider mite (carmine spider mite; 600 ppm) | Insecticidal activity against diamond back moth (%) (Diamond back moth; 100 mg/L) | Insecticidal activity against diamond back moth (%) (Diamond back moth; 600 mg/L) | control (test results against diamond back moth) (Diamond back moth; 100 ppm) | control (test results against diamond back moth) (Diamond back moth; 600 ppm) | Insecticidal activity against armyworm (%) (armyworm; 100 mg/L) | Insecticidal activity against armyworm (%) (armyworm; 600 mg/L) | control (test results against armyworm) (armyworm; 100 ppm) | control (test results against armyworm) (armyworm; 600 ppm) | control effect against cucumber downy mildew (%) (cucumber downy mildew; 25 mg/L) | control effect against cucumber downy mildew (%) (cucumber downy mildew; 50 mg/L) | control effect against cucumber downy mildew (%) (cucumber downy mildew; 100 mg/L) | control effect against cucumber downy mildew (%) (cucumber downy mildew; 400 mg/L) | protectant activity against cucumber downy mildew in vivo (cucumber downy mildew; 25 ppm) | protectant activity against cucumber downy mildew in vivo (cucumber downy mildew; 50 ppm) | protectant activity against cucumber downy mildew in vivo (cucumber downy mildew; 100 ppm) | protectant activity against cucumber downy mildew in vivo (cucumber downy mildew; 400 ppm) | protectant activity against wheat powdery mildew in vivo (wheat powdery mildew) | Insecticidal activity against peach aphid (%) ([1]; 10 mg/L) | Insecticidal activity against peach aphid (%) ([1]; 100 mg/L) | Insecticidal activity against peach aphid (%) ([1]; 600 mg/L) | control (test results against green peach aphid) ([1]; 10 ppm) | control (test results against green peach aphid) ([1]; 100 ppm) | control (test results against green peach aphid) ([1]; 600 ppm)
57%: Insecticidal activity against diamond back moth (%) (Diamond back moth; 10 mg/L)
95%: Insecticidal activity against armyworm (%) (armyworm; 10 mg/L)

FC(F)c1ncnc(NCCc2ccc(Oc3ccc(C(F)(F)F)cc3Cl)nc2)c1Cl [III-661]
100%: protectant activity against corn rust in vivo (corn rust; 100 ppm) | protectant activity against corn rust in vivo (corn rust; 400 ppm) | inhibition rate against rice blast (rice blast; 8.3 ppm) | control (test results against green peach aphid) ([1]; 100 ppm) | control (test results against green peach aphid) ([1]; 600 ppm)

Cc1cc(Cl)ccc1Oc1ccc(CCNc2ncnc(Cl)c2Cl)cn1 [III-2630]
100%: pest or weed control at 400 ppm (corn rust; Zea mays, 168 h) | pest or weed control at 400 ppm (cucumber downy mildew; Cucumis sativus, 168 h)
80 to 99%: inhibition at 25 ppm (rice blast; Pyricularia oryzae) | pest or weed control at 50 ppm (cucumber downy mildew; Cucumis sativus, 168 h, read-out: protectant activity against cucumber downy mildew in vivo, 50 ppm) | pest or weed control at 100 ppm (cucumber downy mildew; Cucumis sativus, 168 h, read-out: protectant activity against cucumber downy mildew in vivo, 100 ppm)
